# Reference: ChEMBL document CHEMBL2157985, “Development of programmable small DNA-binding molecules with epigenetic activity for induction of core pluripotency genes” (Bioorg Med Chem, 2012)
# Active and inactive are the calls of the source. The rule behind the calls is not given here.
# What was measured:
# [1] = test system: MEF; test: Upregulation of Nanog gene expression in C57BL/6 MEF at 100 nM after 24 hrs by quantitative RT-PCR analysis relative to control; assay type: functional, Mus musculus; details: for Activity: Mus musculus
# [2] = Inhibition of HDAC
# [3] = test system: MEF; test: Upregulation of c-Myc gene expression in C57BL/6 MEF at 100 nM after 24 hrs by quantitative RT-PCR analysis relative to control; assay type: functional; details: for Activity: Mus musculus
# [4] = test system: MEF; test: Induction of Oct3/4 gene expression in C57BL/6 MEF at 100 nM after 24 hrs by quantitative RT-PCR analysis relative to control; assay type: functional, Mus musculus; details: for Activity: Mus musculus
# [5] = test system: MEF; test: Upregulation of Klf4 gene expression in C57BL/6 MEF at 100 nM after 24 hrs by quantitative RT-PCR analysis relative to control; assay type: functional, Mus musculus; details: for Activity: Mus musculus
# [6] = test system: MEF; test: Upregulation of Sox2 gene expression in C57BL/6 MEF at 100 nM after 24 hrs by quantitative RT-PCR analysis relative to control; assay type: functional, cell-based; details: Mus musculus
# [7] = test system: MEF; test: Cytotoxicity against C57BL/6 MEF at 100 nM by WST-8 assay; assay type: cell-based; details: mouse, 0.1 µM
SMILES,HDAC inhibition activity [2],fold change (FC) [1],Activity [3],fold change (FC) [4],fold change (FC) [5],Activity [6],Activity [7],fold change (FC) [3],Activity [1],Activity [5],Activity [4]
CN(C)CCCNC(=O)c1cc(NC(=O)c2cc(NC(=O)c3cc(NC(=O)c4cc(NC(=O)CCCNC(=O)c5cc(NC(=O)c6cc(NC(=O)c7cc(NC(=O)c8nc(NC(=O)CCNC(=O)CCNC(=O)CCNC(=O)CCNC(=O)c9ccc(NC(=O)CCCCCCC(=O)NO)cc9)cn8C)cn7C)cn6C)cn5C)cn4C)cn3C)cn2C)cn1C,Active,2,,3.6,1.5,Active,Non-toxic,1.5,,,
CN(C)CCCNC(=O)c1cc(NC(=O)c2cc(NC(=O)c3cc(NC(=O)c4cc(NC(=O)CCCNC(=O)c5cc(NC(=O)c6cc(NC(=O)c7cc(NC(=O)c8nc(NC(=O)CCNC(=O)CCNC(=O)CCNC(=O)c9ccc(NC(=O)CCCCCCC(=O)NO)cc9)cn8C)cn7C)cn6C)cn5C)cn4C)cn3C)cn2C)cn1C,Active,,,4.5,1.5,Active,Non-toxic,1.5,Active,,
CONC(=O)CCCCCCC(=O)Nc1ccc(C(=O)NCCC(=O)NCCC(=O)Nc2cn(C)c(C(=O)Nc3cc(C(=O)Nc4cc(C(=O)Nc5cc(C(=O)NCCCC(=O)Nc6cc(C(=O)Nc7cc(C(=O)Nc8cc(C(=O)Nc9cc(C(=O)NCCCN(C)C)n(C)c9)n(C)c8)n(C)c7)n(C)c6)n(C)c5)n(C)c4)n(C)c3)n2)cc1,,,,,,Active,,,inactive,,inactive
O=C(CCCCCCC(=O)Nc1ccccc1)NO,,,,,,Active,,,inactive,,inactive
CN(C)CCCNC(=O)CCNC(=O)c1cc(NC(=O)c2cc(NC(=O)c3cc(NC(=O)c4cc(NC(=O)CCCNC(=O)c5cc(NC(=O)c6cc(NC(=O)c7cc(NC(=O)c8nc(NC(=O)CCNC(=O)CCNC(=O)c9ccc(NC(=O)CCCCCCC(=O)NO)cc9)cn8C)cn7C)cn6C)cn5C)cn4C)cn3C)cn2C)cn1C,Active,2,,2,,Active,Non-toxic,1.8,,Active,

# Further lines, with some results ahead:
HDAC inhibition activity [2],SMILES,fold change (FC) [1],Activity [3],fold change (FC) [4],fold change (FC) [5],Activity [6],Activity [7],fold change (FC) [3],Activity [1],Activity [5],Activity [4]
Active,CN(C)CCCNC(=O)c1cc(NC(=O)c2cc(NC(=O)c3cc(NC(=O)c4cc(NC(=O)CCCNC(=O)c5cc(NC(=O)c6cc(NC(=O)c7cc(NC(=O)c8nc(NC(=O)CCNC(=O)c9ccc(NC(=O)CCCCCCC(=O)NO)cc9)cn8C)cn7C)cn6C)cn5C)cn4C)cn3C)cn2C)cn1C,2,inactive,2,1.5,Active,Non-toxic,,,,
Active,CN(C)CCCNC(=O)c1cc(NC(=O)c2cc(NC(=O)c3cc(NC(=O)c4cc(NC(=O)CCCNC(=O)c5cc(NC(=O)c6cc(NC(=O)c7cc(NC(=O)c8nc(NC(=O)CCNC(=O)CCNC(=O)c9ccc(NC(=O)CCCCCCC(=O)NO)cc9)cn8C)cn7C)cn6C)cn5C)cn4C)cn3C)cn2C)cn1C,2,inactive,3.1,,Active,Non-toxic,,,inactive,
Active,CC(=O)Nc1cn(C)c(C(=O)Nc2cc(C(=O)Nc3cc(C(=O)Nc4cc(C(=O)NCCCC(=O)Nc5cc(C(=O)Nc6cc(C(=O)Nc7cc(C(=O)Nc8cc(C(=O)NCCCN(C)CCCNC(=O)c9ccc(NC(=O)CCCCCCC(=O)NO)cc9)n(C)c8)n(C)c7)n(C)c6)n(C)c5)n(C)c4)n(C)c3)n(C)c2)n1,2,,2,2.2,Active,Non-toxic,1.5,,,
